Assay results reported in paper PMC8152265, “Seconeolitsine, the Novel Inhibitor of DNA Topoisomerase I, Protects against Invasive Pneumococcal Disease Caused by Fluoroquinolone-Resistant Strains” (Antibiotics, 2021).
In brackets after ≈: the same amount, converted by molar mass. Like-named read-outs stand apart in the source and are kept apart here.

What was measured:
S. pneumoniae = test system: S. pneumoniae; design: method as in PMID 21169356; details: cited from earlier work
S. pneumoniae Topo I = test system: S. pneumoniae Topo I; design: method as in PMID 21169356; details: cited from earlier work
human cell = test system: human cell; design: method as in PMID 21169356; details: cited from earlier work
[1] = Toxicity control, non-infected mice; type: in vivo, BALB/c mice; details: 40 mg/kg, largest concentration used; 7 days of follow-up
Method: (§1) BALB/c female mice (8–12 weeks old) weighing 20 g were purchased from Harlan Laboratories (Barcelona, Spain). […] Different concentrations of antibiotic (10, 20, and 40 mg/kg for SCN; 12.5, 25, and 50 mg/kg for LVX) were administered two times a day over 48 h by the subcutaneous route. The doses, interval, and schedule chosen were based in previous studies investigating the protective activity of FQs against pneumococcal sepsis in mice. Seconeolitsine stock solution was dissolved in dimethyl sulfoxide (DMSO) and the doses tested for protection in animals were prepared in PBS containing 1% DMSO. Animals in the lethal control groups were infected with S. pneumoniae and received the antibiotic solvent (PBS−1% DMSO) instead of SCN or LVX. The toxicity control for each antibiotic (no infection group) only received SCN or LVX. Animal experiments were performed in groups of at least 5 mice and were repeated twice.

Hydrosolubility = type: physicochemical; details: data not shown
[2] = test system: S. pneumoniae isolate CipR72 (serotype 15A); test: MIC by broth microdilution, isolate CipR72; type: cell-based, Streptococcus pneumoniae; details: AGCH medium, 18–24 h
Method: (§2) Bacteria were grown in Todd-Hewitt broth supplemented with 0.5% yeast extract (Difco) to an optical density at 580 nm (OD580) of 0.4 to 0.5 corresponding to ca. 10^8 CFU/mL. Single-use aliquots were stored at −80 °C in 10% glycerol to use in mice infections as previously described. Antimicrobial susceptibility was tested by broth microdilution, according to the Clinical and Laboratory Standards Institute guidelines. S. pneumoniae R6 was included as a quality control. Powders of known potency of LVX and MXF were purchased from Sigma. SCN was synthesized as previously described. Briefly, for MIC determination, pneumococcal strains were grown in a casein hydrolysate-based medium with 0.3% sucrose as an energy source (AGCH medium). A 96-well plate was used including broth containing different concentrations of antibiotics. Plates were inoculated with a standardized suspension of the pneumococcal strains followed by incubation at 37 °C with 5% CO2 for 18–24 h. The minimal inhibitory concentrations (MICs) were determined by observing the lowest concentration of the agent that inhibited visible growth of the bacterium.

[3] = test system: S. pneumoniae isolate CipR5 (serotype 33F); test: MIC by broth microdilution, isolate CipR5; type: cell-based, Streptococcus pneumoniae; details: AGCH medium, 18–24 h
Method: as §2

[4] = test system: S. pneumoniae isolate CipR57 (serotype 8); test: MIC by broth microdilution, isolate CipR57; type: cell-based, Streptococcus pneumoniae; details: isolate CipR57, serotype 8, high-level FQ-resistant, AGCH medium, 18–24 h
Method: as §2

[5] = test system: S. pneumoniae isolate CipR15 (serotype 16F); test: MIC by broth microdilution, isolate CipR15; type: cell-based, Streptococcus pneumoniae; details: AGCH medium, 18–24 h
Method: as §2

[6] = test system: S. pneumoniae isolate CipR57; test: Mouse sepsis model, survival after infection with CipR57; type: in vivo, Streptococcus pneumoniae; details: for survival at 36 h post-infection / survival within the first 48 h post-infection: mice infected i.p. with CipR57; for survival within the first 48 h post-infection: any concentration investigated (12.5 to 50 mg/kg s.c. every 12 h)
Method: as §1

plasma proteins = test: Protein binding by ultrafiltration; type: in vitro ADME; details: murine plasma
Method: Binding to serum proteins was determined by the ultrafiltration method (36) using the Centrifree micropartition system (Amicon Bioseparations, Millipore, Tullagreen, Ireland) with concentrations in murine plasma of 1 and 50 μg/mL for SCN and 5 and 50 μg/mL for LVX. Pre-filtered samples and ultrafiltrates recovered were measured by HPLC or bioassay, as described above. Percentage of SCN or LVX bound to proteins in mouse serum was calculated using the expression: [antibiotic in pre−filtered samples] − [antibiotic in ultrafiltrated samples]/[antibiotic in pre-filtered samples] × 100 as previously described.

[7] = test system: S. pneumoniae isolate CipR57; test: Bacterial counts in blood of mice infected with CipR57; type: in vivo, Streptococcus pneumoniae; details: for effect on bacterial load in blood compared to the untreated group: 24 and 48 h post-infection, LVX 25 and 50 mg/kg, SCN different doses; for bacterial levels in blood at 24 h: 24 h post-infection; for bacteria in blood at 48 h: 48 h post-infection
Method: Bacteremic profiles (colony counts in blood) were determined from mice treated with SCN and LVX, at 24 h and 48 h post-infection, when the majority of mice were alive. To collect blood samples, volumes of 6 µl were obtained from the tail vein, as previously described, resuspended in PBS and plated onto blood agar plates at 37 °C in 5% CO2 for colony counts determination.

[8] = test system: S. pneumoniae isolate CipR45 (serotype 8); test: MIC by broth microdilution, isolate CipR45; type: cell-based, Streptococcus pneumoniae; details: isolate CipR45, serotype 8, low-level FQ-resistant, AGCH medium, 18–24 h
Method: as §2

[9] = Serum pharmacokinetics in non-infected mice after single subcutaneous dose; type: in vivo, BALB/c mice
Method: Groups of two mice for each antibiotic and time-point were treated with a single subcutaneous dose of 40 mg/kg of SCN or 50 mg/kg of LVX. Blood samples were collected at 15 and 30 min and 1, 2, 4, 6, 8, 10, 12, 14, 18, and 24 h, centrifuged for 10 minutes at 2000 rpm, and the sera from the different mice were stored at −80 °C until drug assay determination.
Seconeolitsine concentrations were measured by high-pressure liquid chromatography analysis (HPLC). Chromatographic separation was performed using SunFire C18 column (150 × 4.6 mm; Waters Corporation, MA, USA) with trifluoroacetic acid and acetonitrile in the ratio 70:30 (vol./vol.) as the mobile phase. The solvent flow rate was 1.0 mL/min with a runtime of 20 minutes. The mobile phase was filtered through 0.45 µm prior to use. Standards ranging from 0−1.000 µg/mL were prepared in HPLC grade methanol. Sample dilutions, prepared in mouse serum, were injected into the column at a constant volume of 20 µl and were tested in duplicate. The detection wavelength was 270 by UV absorbance using a Waters UV–Visible 2489 module (Waters Corporation). The column was maintained at room temperature.
Plates containing a lawn of microorganism were incubated for 18–24 h at 37 °C. Standards and dilutions were prepared in mouse serum in a range from 0.03–8 µg/ mL.
Pharmacokinetic (PK) parameters measured included peak level (Cmax), time peak level (Tmax), area under the concentration time-curve from 0 to last (Clast) measured concentration (AUClast), and elimination half-life (t1/2). These parameters were estimated for both the total concentrations and the free fraction concentrations and were determined by using protein binding values, by a non-compartmental approach with the Phoenix WinNonlin program (version 6.2, Certara, NJ, USA). […] T>MIC for total and unbound concentrations (fT>MIC) were determined by a non-compartmental approach for PD data (Phoenix WinNonlin, model 220).

[10] = test system: S. pneumoniae isolate CipR45; test: Mouse sepsis model, survival after infection with CipR45; type: in vivo, Streptococcus pneumoniae; details: mice infected i.p. with CipR45
Method: as §1

[11] = mouse serum, single s.c. dose 40 mg/kg (seconeolitsine) or 50 mg/kg (levofloxacin)
[12] = Streptococcus pneumoniae, read-out: MIC
[13] = BALB/c, mouse, in vivo, sc, 50 mg/kg

SMILES: CN(C)CCc1cc2c(c3c1ccc1cc4c(cc13)OCO4)OCO2 [N-methyl-seconeolitsine]
- concentration inhibiting cell growth (S. pneumoniae): ~ 10 µM
- concentration inhibiting S. pneumoniae Topo I activity in vitro (S. pneumoniae Topo I): ~ 10 µM
- effect on human cell viability (human cell): without affecting human cell viability

SMILES: CNCCc1cc2c(c3c1ccc1cc4c(cc13)OCO4)OCO2 [Seconeolitsine, seconeolitsine]
- harm to non-infected mice (survival, aspect, breathing, hair, eyes, appetite, movement, weight) [1]: not harmful
- hydrosolubility (Hydrosolubility): poor hydrosolubility
- MIC [2]: 5.2 µg/mL (≈ 16.1 µM)
- MIC [3]: 5.2 µg/mL (≈ 16.1 µM)
- MIC [4]: 2.6 µg/mL (≈ 8.04 µM)
- concentration inhibiting cell growth (S. pneumoniae): ~ 10 µM
- MIC [5]: 2.6 µg/mL (≈ 8.04 µM)
- concentration inhibiting S. pneumoniae Topo I activity in vitro (S. pneumoniae Topo I): ~ 10 µM
- survival at 36 h post-infection ([6]; 20 mg/kg s.c. every 12 h over 48 h): 60%
- survival at 36 h post-infection ([6]; 40 mg/kg s.c. every 12 h over 48 h): 70%
- protection at 48 h ([6]; mice infected with a serotype 8-resistant strain, 40 mg/kg every 12 h during two days (abstract)): 70%
- binding to plasma proteins (plasma proteins; 1 µg/mL): 40%
- binding to plasma proteins (plasma proteins; 50 µg/mL): 80%
- effect on bacterial load in blood compared to the untreated group [7]: significantly reduced bacterial load
- bacterial levels in blood at 24 h [7]: 10^4−10^5 CFU/mL
- bacteria in blood at 48 h [7]: a significant proportion of mice treated with SCN were free of bacteria
- MIC [8]: 5.2 µg/mL (≈ 16.1 µM)
- effect on human cell viability (human cell): without affecting human cell viability
- SCN-derived metabolites in murine plasma ([9]; by HPLC): not detected
- AUC0-12h [9, 11]: 5000 ± 0 ng·h/mL
- Cmax [9, 11]: 1600 ± 300 ng/mL
- Cmin [9, 11]: 300 ± 40 ng/mL
- Tlast [9, 11]: 9.0 ± 1.4 h
- Tmax [9, 11]: 60 ± 0 min
- t1/2 [9, 11]: 468 ± 144 min
- AUC0-24h ([9]; mouse serum, single s.c. dose 40 mg/kg (seconeolitsine) or 50 mg/kg (levofloxacin), twice the AUC0-last): 10000 ± 100 ng·h/mL

SMILES: O=C(O)c1cn(C2CC2)c2cc(N3CCNCC3)c(F)cc2c1=O [CIP, ciprofloxacin]
- MIC [2, 12]: 64 µg/mL (≈ 193 µM)
- MIC [3, 12]: 16 µg/mL (≈ 48.3 µM)
- MIC [4, 12]: 64 µg/mL (≈ 193 µM)
- MIC [5, 12]: 32 µg/mL (≈ 96.6 µM)
- MIC [8, 12]: 4 µg/mL (≈ 12.1 µM)

SMILES: COc1c(N2C[C@@H]3CCCN[C@@H]3C2)c(F)cc2c(=O)c(C(=O)O)cn(C3CC3)c12 [MXF, moxifloxacin]
- MIC [2, 12]: 4 µg/mL (≈ 9.96 µM)
- MIC [3, 12]: 2 µg/mL (≈ 4.98 µM)
- MIC [4, 12]: 4 µg/mL (≈ 9.96 µM)
- MIC [5, 12]: 4 µg/mL (≈ 9.96 µM)
- MIC [8, 12]: 0.25 µg/mL (≈ 0.623 µM)

SMILES: C[C@H]1COc2c(N3CCN(C)CC3)c(F)cc3c(=O)c(C(=O)O)cn1c23 [Levofloxacin, levofloxacin]
- MIC [2, 12]: 32 µg/mL (≈ 88.6 µM)
- MIC [3, 12]: 8 µg/mL (≈ 22.1 µM)
- MIC [4, 12]: 16 µg/mL (≈ 44.3 µM)
- MIC [5, 12]: 16 µg/mL (≈ 44.3 µM)
- survival at 36 h post-infection ([10]; 12.5 mg/kg s.c. every 12 h over 48 h): 40%
- survival at 36 h post-infection ([10]; 25 mg/kg s.c. every 12 h over 48 h): 80%
- survival at 36 h post-infection ([10]; 50 mg/kg s.c. every 12 h over 48 h): 100%
- survival at 78 h post-treatment ([10]; 12.5 to 50 mg/kg s.c. every 12 h over 48 h): all mice succumbed to the infection
- survival within the first 48 h post-infection [6]: all died within the first 48 h
- survival within the first 48 h post-infection ([6]; listed as LVX): all the animals died within the first 48 h post-infection
- binding to plasma proteins (plasma proteins; 5 µg/mL): 12%
- binding to plasma proteins (plasma proteins; 50 µg/mL): 33%
- effect on bacterial load in blood compared to the untreated group [7]: did not reduce bacterial levels in blood
- bacterial levels in blood at 24 h [7]: around 10^8 CFU/mL
- bacteria in blood at 48 h [7]: High levels of bacterial counts
- MIC [8, 12]: 2 µg/mL (≈ 5.53 µM)
- Cmax [9, 13]: 14700 ± 700 ng/mL
- Tmax [9, 13]: 15 min
- half-life [9, 13]: 42 min
- AUC(0-t) ([9]; BALB/c, mouse, in vivo, sc, 50 mg/kg, AUC0-12h): 17300 ± 1500 ng·h/mL
- AUC(0-t) ([9]; BALB/c, mouse, in vivo, sc, 50 mg/kg, AUC0-24h): 34600 ± 2900 ng·h/mL
